Our source for the IC50 values is ChEMBL document CHEMBL1158230, “Cytotoxicity and mode of action of aeroplysinin-1 and a related dienonefrom the sponge Aplysina aerophoba” (J Nat Prod, 1996).

Common to all, as to format: functional, cell-based
Assay [1] in a line: Cytotoxicity against buthionine sulfoximine-pretreated mouse EN19 cells after 2 hrs by MTT assay.
A short description of assay [2]: Cytotoxicity against buthionine sulfoximine-pretreated human HeLaS3 cells after 2 hrs by MTT assay. The note with it: HeLa S3. On the technique in general: Tetrazolium assays rely on reduction of a dye to a coloured formazan, in cell work by metabolically active cells.
Assay [3] in a line: Cytotoxicity against mouse EN19 cells after 2 hrs by MTT assay. The note with it: EN19, 2 h.
Assay [4] is described as follows: Cytotoxicity against human HeLaS3 cells after 4 days by MTT assay. The settings on record: HeLa S3, 96 h.
Assay [5] is described as follows: Cytotoxicity against buthionine sulfoximine-pretreated mouse EN19 cells after 3 days by MTT assay.
Assay [6] in a line: Cytotoxicity against human HeLaS3 cells after 2 hrs by MTT assay. The note with it: HeLa S3, 2 h.
A short description of assay [7]: Cytotoxicity against buthionine sulfoximine-pretreated human HeLaS3 cells after 4 days by MTT assay. The note with it: HeLa S3.
A short description of assay [8]: Cytotoxicity against mouse EN19 cells after 3 days by MTT assay. The note with it: EN19, 72 h.
Assay [9] can be described thus: Cytotoxicity against human HeLaS3 cells after 2 weeks by clonogenic assay. The note with it: HeLa S3, 336 h.
Assay [10] is described as follows: Cytotoxicity against mouse EN19 cells after 1 week by clonogenic assay. The note with it: EN19, 168 h.

Each structure is given as a SMILES string.

The term IC50 denotes the concentration needed to halve the response being measured. Take `COC1=C(Br)[C@H](O)[C@](O)(CC#N)C=C1Br`: the IC50 turned out to be 1.1 µM in assay [1]; 5.4 µM in assay [2]; 8.2 µM in assay [3]; 5.6 µM in assay [4]; 0.7 µM in assay [5]; 18.8 µM in assay [6]. Moreover, the IC50 stood at 2.8 µM in assay [7], 6.2 µM in [8], 27.5 µM in assay [9] and 37 µM in assay [10].
Consider `NC(=O)CC1(O)C=C(Br)C(=O)C(Br)=C1` [VERONGIAQUINOL], for which the IC50 in assay [1] was found to be 3.9 µM; in [2] it was 15.7 µM; in assay [3], 46.1 µM; in assay [4], 15.6 µM; in [5], 5.4 µM; in assay [6] it was 31.9 µM. The IC50 in assay [7] is 10.4 µM; in assay [8], 26.1 µM; in [9], 58 µM; in assay [10], 74.3 µM.
